Reference: patent US20180305657A1, “Bioactive Fungi” (Agriculture Victoria Services PTY LTD, priority 2015, published 2018)
Where two headings read alike, the source gives them in different places.

Assays:
[1] = system: Tribolium castaneum
Experimental: A total of 20 chemical standards were evaluated for their insecticidal activity against the stored grain pest, Tribolium castaneum. These chemical standards represented compounds in the volatolome of Daldinia sp. or were structural analogues of these compounds (Table 5). […] The insect pest was inoculated on to one half of the Petri plate by placing 4 insects onto feed (wheat flour and yeast). A chemical standard was then aliquoted (5 microlitre) on to the other half of the Petri plate on filter paper. Plates were immediately sealed with Parafilm®, covered in aluminium foil (i.e. in the dark) and maintained at room temperature. The mortality of insects was monitored daily by assessing insect movement as an indicator of mortality. The mortality was calculated by comparing the number of dead insects to the total number in the plate, and expressed as percentage mortality (Tables 6). Data were analysed using ANOVA as performed in GenStat, version 14. The experiment was fully randomised with 5 replicates for each endophyte.

[2] = system: Pseudomonas syringae; test: Bactericidal bioassay, compounds alone or in synergy; assay type: cell-based; conditions: for Growth Scale: compound alone, 10 μL, 3 days, 2 equivalent growth to control, 1 less growth, 0 no growth; for activity against P. syringae: used alone (acetaldehyde, isovaleraldehyde: alone or in combination)
From the text: A bactericidal bioassay was established to evaluate the effect of the most insecticidal candidate compounds against the plant pathogenic bacterium Pseudomonas syringae, when applied alone or in synergy with other compounds from the volatolome of Daldinia sp. The pathogen was inoculated on to one third of the Petri plate by streaking bacterial cells from an actively growing culture (overnight) on to nutrient agar (NA). A candidate compound was then aliquoted (10 microlitres—except Acetaldehyde: 20 microlitres due to high volatility) onto another third of the Petri plate on filter paper. […] An untreated control was included and consisted of no compounds.

[3] = system: T. castaneum
Experimental: The bioassays were conducted in 1 litre Schott bottles. The insect pest was inoculated into the bioassay by placing 9-12 insects onto feed (wheat flour and yeast). The biocidal compounds were then aliquoted into the bioassay at volumes ranging from 20-200 microlitres, ensuring no direct contact with the insect. Bottles were immediately sealed with Parafilm® and maintained at room temperature. The mortality of insects was monitored daily for three days exposure, by assessing insect movement as an indicator of mortality. The mortality was calculated by comparing the number of dead insects to the total number in the bioassay, and expressed as percentage mortality. Data were analysed using ANOVA as performed in GenStat, version 14. The experiment was fully randomised with 4 replicates for each endophyte.

[4] = system: Fusarium verticillioides; test: Fungicidal bioassay, compounds alone or in synergy; assay type: cell-based; conditions: for % Inhibition (v control): 4 days; for fungicidal activity against F. verticillioides: in isolation; for inhibition of growth of the pathogen: in isolation and in combination with any of the compounds tested
From the text: A fungicidal bioassay was established to evaluate the effect of key compounds from the volatolome of Daldinia sp. against the plant pathogenic fungus, Fusarium verticillioides, when applied alone and in synergy with other compounds from the volatolome of Daldinia sp. The pathogen was inoculated on to one third of the Petri plate by placing an agar plug of actively growing hyphae onto PDA. Candidate compounds were then aliquoted (10 microlitres) on to another third of the Petri plate on filter paper. […] After 4 days the growth of the pathogen was determined by measuring the radius of the colony (on two alternate planes).

## C1=CCCCC=C1 [1,3 Cycloheptadiene, 1,3-cycloheptadiene]
[1]; 5 microlitre, Day 1
  % Mortality Day 1: 12.5%
[1]; 5 microlitre, Day 2
  % Mortality Day 2: 20.8%
[1]; 5 microlitre, Day 3
  % Mortality Day 3: 27.5%
[1]; 5 microlitre, Day 4
  % Mortality Day 4: 27.5%

## CC1=CCC=CC1 [1-Methyl-1,4-cyclohexadiene]
[1]; 5 microlitre, Day 1
  % Mortality Day 1: 0.0%
[1]; 5 microlitre, Day 2
  % Mortality Day 2: 0.0%
[1]; 5 microlitre, Day 3
  % Mortality Day 3: 0.0%
[1]; 5 microlitre, Day 4
  % Mortality Day 4: 0.0%

## CC(=O)C(C)=O [2,3 Butanedione, 2,3-butanedione]
[1]; in vivo
  % Mortality Day 1: 0.0%
  % Mortality Day 2: 0.0%
  % Mortality Day 3: 0.0%
  % Mortality Day 4: 0.0%
  mortality grouping in title of Table 5: 1,4-cyclohexadiene, Toluene, 2,3 Butanedione, Ethanol: 0% mortality).

## CCC(C)CO (stereo not shown) [2-Methyl-1-butanol]
[1]; 5 microlitre, Day 1
  % Mortality Day 1: 80.0%
[1]; 5 microlitre, Day 2
  % Mortality Day 2: 80.0%
[1]; 5 microlitre, Day 3
  % Mortality Day 3: 80.0%
[1]; 5 microlitre, Day 4
  % Mortality Day 4: 80.0%

## CCCC(C)O (stereo not shown) [2-Pentanol]
[1]; 5 microlitre, Day 1
  % Mortality Day 1: 0.0%
[1]; 5 microlitre, Day 2
  % Mortality Day 2: 0.0%
[1]; 5 microlitre, Day 3
  % Mortality Day 3: 0.0%
[1]; 5 microlitre, Day 4
  % Mortality Day 4: 0.0%

## CC(C)CCO [3-Methyl-1-butanol]
[1]; in vivo
  % Mortality Day 1: 45.0%
  % Mortality Day 2: 45.0%
  % Mortality Day 3: 50.0%
  % Mortality Day 4: 50.0%

## CCC(O)CC [3-Pentanol]
[1]; 5 microlitre, Day 1
  % Mortality Day 1: 100.0%
[1]; 5 microlitre, Day 2
  % Mortality Day 2: 100.0%
[1]; 5 microlitre, Day 3
  % Mortality Day 3: 100.0%
[1]; 5 microlitre, Day 4
  % Mortality Day 4: 100.0%
[2]
  Growth Scale: 2
  activity against P. syringae: did not exhibit any activity
[3]; in vivo
  mortality after a 1 day exposure, 20 μL: 100%
  mortality after a 1 day exposure, 50 μL: 100%
  mortality after a 1 day exposure, 100 μL: 100%
  mortality after a 1 day exposure, 150 μL: 100%
  mortality after a 1 day exposure, 200 μL: 100%
  mortality after one day: 100%
[4]; compound alone, 10 uL
  % Inhibition (v control): 47.3%
[4]
  fungicidal activity against F. verticillioides: moderate fungicidal activity

## CC(=O)CCO [4-Hydroxy-2-butanone]
[1]; 5 microlitre, Day 1
  % Mortality Day 1: 4.0%
[1]; 5 microlitre, Day 2
  % Mortality Day 2: 4.0%
[1]; 5 microlitre, Day 3
  % Mortality Day 3: 4.0%
[1]; 5 microlitre, Day 4
  % Mortality Day 4: 4.0%

## CC1CC=CCC1 (stereo not shown) [4-Methylcyclohexene]
[1]; 5 microlitre, Day 1
  % Mortality Day 1: 4.0%
[1]; 5 microlitre, Day 2
  % Mortality Day 2: 13.7%
[1]; 5 microlitre, Day 3
  % Mortality Day 3: 17.7%
[1]; 5 microlitre, Day 4
  % Mortality Day 4: 17.7%

## CC=O [Acetaldehyde]
[1]; 5 microlitre, Day 1
  % Mortality Day 1: 36.0%
[1]; 5 microlitre, Day 2
  % Mortality Day 2: 36.0%
[1]; 5 microlitre, Day 3
  % Mortality Day 3: 36.0%
[1]; 5 microlitre, Day 4
  % Mortality Day 4: 36.0%
[2]
  activity against P. syringae: high bactericidal activity
[3]; Volume 20 μL in 1 litre bottle, 1 day
  mortality after a 1 day exposure, 20 μL: 2.3%
[3]; Volume 50 μL in 1 litre bottle, 1 day
  mortality after a 1 day exposure, 50 μL: 28.3%
[3]; Volume 100 μL in 1 litre bottle, 1 day
  mortality after a 1 day exposure, 100 μL: 98.2%
[3]; Volume 150 μL in 1 litre bottle, 1 day
  mortality after a 1 day exposure, 150 μL: 100%
[3]; Volume 200 μL in 1 litre bottle, 1 day
  mortality after a 1 day exposure, 200 μL: 100%
[3]; volumes ranging from 100-200 microlitres
  mortality after a 1 day exposure: 98.2-100.0%
[4]
  fungicidal activity against F. verticillioides: high fungicidal activity
  inhibition of growth of the pathogen: 100%

## CC(=O)C(C)O (stereo not shown) [Acetoin, acetoin]
[1]; 5 microlitre, Day 1
  % Mortality Day 1: 100.0%
[1]; 5 microlitre, Day 2
  % Mortality Day 2: 100.0%
[1]; 5 microlitre, Day 3
  % Mortality Day 3: 100.0%
[1]; 5 microlitre, Day 4
  % Mortality Day 4: 100.0%
[2]
  Growth Scale: 2
  activity against P. syringae: did not exhibit any activity
[3]; in vivo
  mortality after a 1 day exposure: 100%
  mortality after a 1 day exposure, 20 μL: 3%
  mortality after a 1 day exposure, 50 μL: 100%
  mortality after a 1 day exposure, 100 μL: 100%
  mortality after a 1 day exposure, 150 μL: 100%
  mortality after a 1 day exposure, 200 μL: 100%
[4]; compound alone, 10 uL
  % Inhibition (v control): 0%
[4]
  fungicidal activity against F. verticillioides: no activity

## O=Cc1ccccc1 [Benzaldehyde]
[1]; 5 microlitre, Day 1
  % Mortality Day 1: 0.0%
[1]; 5 microlitre, Day 2
  % Mortality Day 2: 0.0%
[1]; 5 microlitre, Day 3
  % Mortality Day 3: 0.0%
[1]; 5 microlitre, Day 4
  % Mortality Day 4: 0.0%

## CCCC=O [Butyraldehyde]
[1]; in vivo
  % Mortality Day 1: 31.5%
  % Mortality Day 2: 39.5%
  % Mortality Day 3: 39.5%
  % Mortality Day 4: 39.5%

## CCCC(=O)O [Butyric acid]
[1]; 5 microlitre, Day 1
  % Mortality Day 1: 0.0%
[1]; 5 microlitre, Day 2
  % Mortality Day 2: 0.0%
[1]; 5 microlitre, Day 3
  % Mortality Day 3: 6.9%
[1]; 5 microlitre, Day 4
  % Mortality Day 4: 6.9%

## CCO [Ethanol]
[1]; in vivo
  % Mortality Day 1: 0.0%
  % Mortality Day 2: 0.0%
  % Mortality Day 3: 0.0%
  % Mortality Day 4: 0.0%
  mortality grouping in title of Table 5: 1,4-cyclohexadiene, Toluene, 2,3 Butanedione, Ethanol: 0% mortality).

## CC(C)CC=O [Isovaleraldehyde]
[1]; 5 microlitre, Day 1
  % Mortality Day 1: 100.0%
[1]; 5 microlitre, Day 2
  % Mortality Day 2: 100.0%
[1]; 5 microlitre, Day 3
  % Mortality Day 3: 100.0%
[1]; 5 microlitre, Day 4
  % Mortality Day 4: 100.0%
[2]
  Growth Scale: 0.25
  activity against P. syringae: high bactericidal activity
[3]; in vivo
  mortality after a 1 day exposure: 100%
  mortality after a 1 day exposure, 20 μL: 3%
  mortality after a 1 day exposure, 50 μL: 100%
  mortality after a 1 day exposure, 100 μL: 100%
  mortality after a 1 day exposure, 150 μL: 100%
  mortality after a 1 day exposure, 200 μL: 100%
[4]; compound alone, 10 uL
  % Inhibition (v control): 100.0%
[4]; compound alone, 10 uL, plug on fresh PDA plate
  Activity (fungistatic or fungicidal): Fungicidal
[4]
  fungicidal activity against F. verticillioides: high fungicidal activity
  inhibition of growth of the pathogen: 100%

## C=C1CCCCC1 [Methylenecyclohexane]
[1]; 5 microlitre, Day 1
  % Mortality Day 1: 8.0%
[1]; 5 microlitre, Day 2
  % Mortality Day 2: 8.0%
[1]; 5 microlitre, Day 3
  % Mortality Day 3: 16.0%
[1]; 5 microlitre, Day 4
  % Mortality Day 4: 16.0%

## C1=CC2(C=C1)CC2 [Spiro[2.4]hepta-4,6-diene]
[1]; 5 microlitre, Day 1
  % Mortality Day 1: 87.1%
[1]; 5 microlitre, Day 2
  % Mortality Day 2: 100.0%
[1]; 5 microlitre, Day 3
  % Mortality Day 3: 100.0%
[1]; 5 microlitre, Day 4
  % Mortality Day 4: 100.0%
